According to PubChem BioAssay (NCI):
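Results reflect a 48-hour exposure of cells in 96-well plates to compound at five concentrations. At the GI50, growth is halved. At the TGI there is no net growth.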

Legend:
Test in all cases: NCI tumour cell line growth inhibition, 48 h
SF-268 CNS = system: SF-268 CNS
A498 renal = system: A498 renal
RPMI-8226 leukemia = system: RPMI-8226 leukemia
SF-295 CNS = system: SF-295 CNS
OVCAR-3 ovarian = system: OVCAR-3 ovarian
T-47D breast = system: T-47D breast
M14 melanoma = system: M14 melanoma
SK-MEL-5 melanoma = system: SK-MEL-5 melanoma
U251 CNS = system: U251 CNS
786-0 renal = system: 786-0 renal

Row | SMILES | GI50 (SF-268 CNS) | TGI (SF-268 CNS) | GI50 (A498 renal) | TGI (A498 renal) | GI50 (RPMI-8226 leukemia) | TGI (RPMI-8226 leukemia) | GI50 (SF-295 CNS) | TGI (SF-295 CNS) | GI50 (OVCAR-3 ovarian) | TGI (OVCAR-3 ovarian) | GI50 (T-47D breast) | TGI (T-47D breast) | GI50 (M14 melanoma) | TGI (M14 melanoma) | GI50 (SK-MEL-5 melanoma) | TGI (SK-MEL-5 melanoma) | GI50 (U251 CNS) | TGI (U251 CNS) | GI50 (786-0 renal) | TGI (786-0 renal)
1 | COc1ccc(C(=O)COC(=O)[C@H](C[Se][Se]C[C@H](NC(=O)c2ccc(Br)cc2F)C(=O)OCC(=O)c2ccc(OC)cc2)NC(=O)c2ccc(Br)cc2F)cc1 | 0.943 µM | 3.21 µM | 0.896 µM | 8.84 µM | 0.502 µM | 5.69 µM | 0.211 µM | 0.61 µM | 0.88 µM | 2.31 µM | 1.73 µM | 6.03 µM | 0.588 µM | 1.85 µM | 0.596 µM | 2.76 µM | 0.312 µM | 1.07 µM | 0.433 µM | 1.46 µM
2 | COc1cc(OC)c(/C=C\c2ccnc3ccccc23)c(OC)c1 | – | 22.8 µM | – | 9.87 µM | – | 13 µM | – | 8.35 µM | – | 12.8 µM | – | 15.6 µM | – | 15.2 µM | – | 5.88 µM | – | 15.2 µM | – | 17.8 µM
3 | COc1ccc2c(CN3CCC(C(=O)O)CC3)cc3cc4c(cc3c2c1)OCO4 | 3.67 µM | 25.4 µM | 1.79 µM | 3.33 µM | 1.4 µM | 3.59 µM | 2.39 µM | 10.1 µM | 2.85 µM | 9.64 µM | 3.62 µM | 17.7 µM | 2.11 µM | 4.94 µM | 1.62 µM | 3.14 µM | 2.74 µM | > 100 µM | 2.41 µM | 14.2 µM
4 | O=C(c1ccccc1)c1ccc(Oc2ccc([N+](=O)[O-])cc2[N+](=O)[O-])cc1 | 3.3 µM | 11.9 µM | 11 µM | 24.8 µM | 2.56 µM | 7.72 µM | 2.62 µM | 8.51 µM | 2.3 µM | 5.07 µM | 2.82 µM | 23.5 µM | 3.09 µM | 31.6 µM | 2.02 µM | 4.42 µM | 3.25 µM | 13.3 µM | 3.46 µM | 15.9 µM
5 | COc1ccc2cc(-c3cc4c(oc3=O)-c3ccccc3OC4O)c(=O)oc2c1 (centres undefined) | 16.9 µM | 33.8 µM | 17.3 µM | 33.5 µM | 13.4 µM | 58.7 µM | – | 15.3 µM | 15.4 µM | 30.6 µM | 13 µM | 33.6 µM | 22.1 µM | 43.8 µM | 13.2 µM | 26.9 µM | 16.4 µM | 31.4 µM | 25.4 µM | 41.5 µM
6 | Nc1nc(OCc2cc(Br)cs2)c2[nH]cnc2n1 | 32.3 µM | > 100 µM | 11 µM | 48.3 µM | 19.1 µM | > 100 µM | 25.9 µM | > 100 µM | 28.1 µM | > 100 µM | 17.5 µM | 87.5 µM | 26.7 µM | > 100 µM | 15.9 µM | 39.6 µM | 28.8 µM | > 100 µM | 22.2 µM | > 100 µM
7 | O=C(/C(=C\c1ccc([N+](=O)[O-])cc1)S(=O)Cc1ccc(F)cc1)c1ccc(F)cc1 (centres undefined) | 2.11 µM | 5.34 µM | 6.19 µM | 18.6 µM | 1.3 µM | 4.28 µM | 1.68 µM | 3.72 µM | 1.63 µM | 3.01 µM | 2.08 µM | 6.57 µM | 1.79 µM | 3.76 µM | 1.8 µM | 3.5 µM | 1.72 µM | 3.44 µM | 1.74 µM | 3.92 µM
8 | O=C1C(=O)c2c(nc3ccc(Br)cn23)-c2ccccc21 | 0.543 µM | 1.97 µM | 1.51 µM | 2.87 µM | 0.388 µM | 2.67 µM | 1.61 µM | 3.02 µM | 0.265 µM | 0.889 µM | 1.44 µM | 3.89 µM | 0.489 µM | 1.02 µM | 0.317 µM | 0.788 µM | 0.588 µM | 1.87 µM | 1.85 µM | 3.36 µM
9 | O=CNc1ncn[nH]1 | – | > 100 µM | – | > 100 µM | – | > 100 µM | – | > 100 µM | – | > 100 µM | – | > 100 µM | – | > 100 µM | – | > 100 µM | – | > 100 µM | – | > 100 µM
10 | O=[N+]([O-])c1ccc(Sc2ncnc3nc[nH]c23)c2nonc12 | 5 µM | 19.7 µM | 8.46 µM | 20.5 µM | 2.92 µM | 48 µM | 3.87 µM | 20.6 µM | 0.714 µM | 16.6 µM | 2.09 µM | > 100 µM | 0.94 µM | 13.5 µM | 10.2 µM | 22.3 µM | 14.8 µM | 50.5 µM | 1.74 µM | 5.16 µM
11 | C/C(=C\CCc1ccoc1)CC/C=C(\C)CCCN1CCOCC1 | 7.03 µM | 21.7 µM | 4.48 µM | 19.7 µM | 1.88 µM | 4.99 µM | 3.95 µM | 16.1 µM | 3.73 µM | 15.3 µM | 3.62 µM | 13.1 µM | 1.65 µM | 3.42 µM | 1.7 µM | 3.52 µM | 6.29 µM | 19.1 µM | 1.83 µM | 4.18 µM
12 | O=C(CN(/C=C/C(=O)C(F)(F)F)c1ccc(Cl)cc1)c1ccccc1 | > 100 µM | > 100 µM | 22 µM | 43.1 µM | 12.9 µM | 89.3 µM | 12.1 µM | 41.4 µM | 9.15 µM | 46.3 µM | 4.08 µM | > 100 µM | 10.6 µM | 22.9 µM | 12.1 µM | 27.7 µM | 15.8 µM | 30.8 µM | 13.5 µM | 31.3 µM
13 | Cc1ccc2ncnc(N(CC(C)C)CC(C)C)c2c1 | 16.2 µM | 37.7 µM | 13.5 µM | 28.2 µM | 1.61 µM | 5.13 µM | 16.7 µM | 32.7 µM | 16.3 µM | 31.5 µM | 20.4 µM | 89.3 µM | 14.8 µM | 30.8 µM | 6.9 µM | 25.6 µM | 16.5 µM | 33.3 µM | 18.5 µM | 40 µM
